For series [1], the system named is REV-ERB. As to the kind of experiment: Luciferase-based assay of REV-ERB mediated transcriptional regulation (RevRE/SV40-CLuc reporter in HEK-293 cells). Format: cell-based. The conditions noted are these: HEK-293 cells transfected with RevRE reporter and REV-ERBα and/or β; read 24 h post-transfection; read-out: REV-ERB antagonism EC50. The source says:
Luciferase-Base Assay to Assess the Activity of the Compounds on REV-ERB Mediated Transcriptional Regulation
In order to assess the effect of the compounds of the invention on REV-ERB activity the inventors exploited the ability of REV-ERB to repress gene transcription of a specific DNA cis-element. In fact, the DNA binding domain (DBD) of REV-ERB recognizes specific DNA sequences (called RevREs=Rev-erb Responsive Elements) which contains an AGGTCA motif linked in 5′ to an A/T rich sequence harboring the following consensus: A/T A A/T N T (Harding et al., Mol Cell Biol., 1993; 13:3113).
Therefore, two repetitions of the RevRE consensus AGAATGTAGGTCA (SEQ ID NO: 13) upstream a SV40 promoter driving the expression of a reporter gene were cloned. As reported, the luciferase enzyme from the ostracod Cypridina noctiluca was adopted. […] Cypridina luciferase (CLuc) is secreted from cells by virtue of its natural signal peptide and its luminescence can be measured from the supernatant of transfected cells. Therefore, cell lysis is not necessary. Secreted CLuc is a very stable protein. Because of this property, the activity measured from the supernatant reflects the amount of protein accumulated up to the time of sampling. Multiple samples can therefore be obtained from the same transfected cells, allowing an easy set-up of time-course experiments. In addition, the direct use of the supernatant makes the system easily prone to automation for High Throughput Screening.
In order to normalize the experiment for the transfection efficiency, it was used a plasmid containing a SV40 promoter driving the expression of a secreted form of human alkaline phosphatase (SEAP), which enzymatic activity in the supernatant can be measured with chemiluminescence substrates.
To be able to rule out false-positive, for example due to the interference of the compounds to be tested with the fluorescence and/or chemiluminescence reactions, it was used as control a mutated version of the RevRE (GAGCCCGTAGGTCA) (SEQ ID NO: 14) that is no longer able to bind REV-ERB DBD (Harding et al., Mol Cell Biol., 1993; 13:3113).
The person skilled in the art will appreciate that an agonist will improve the ability of REV-ERB to repress the transcription, reducing the luminescence signal, while an antagonist will produce the opposite effect.
For the assay, HEK-293 cells were transfected with the reporter vectors and a plasmid expressing the REV-ERBα and/or β protein. After 6 h from transfection, the medium was replaced with fresh medium containing different doses of the compounds or vehicle (DMSO). After 24 h post-transfection, the supernatant was analyzed for the secreted luciferase and AP activity according to the manufacture instruction. Data normalized as fold activation versus vehicle (DMSO) were fitted using a four-parameter dose-response curve to calculate the EC50 of the different compounds.
(§1) The different compounds were tested for their ability to inhibit the growth of the tumorigenic breast cancer cells BT-474 and for their antagonistic activity toward REV-ERB transcriptional repression, as described in the biological method section.
For the cell growth inhibition (GI) the growth inhibition 50 (GI50) and the growth inhibition max (GImax) are reported. […] The bottom plateaus of the curve was used to calculate the Growth Inhibition max (GImax), defined as the percentage of the reduction of cells after 48 h upon a saturating dose of the administered compound. Compounds with a GI50<100 μM were also tested for their antagonistic activity toward REV-ERB. […]

Series [2] deals with tumorigenic breast cancer cells BT-474. As to the kind of experiment: Growth inhibition assay (CyQUANT Cell Proliferation Assay) in BT-474 cells. Format: cell-based. Conditions: Homo sapiens; for GI50: 48 h, CyQUANT, read-out: Cell Growth Inibition GI50; for Emax: reduction of cells after 48 h at saturating dose, read-out: Cell Growth Inibition GImax.
Source text: Given that REV-ERB target genes include several metabolic regulators, such as Pgc-1α and Nampt, it was decided to test the cell proliferation with a method that is independent from the metabolic state of the cell.
The CyQUANT® Cell Proliferation Assay Kit (Invitrogen) was used, an assay that has a linear detection range extending from 50 or fewer to at least 250,000 cells.
Frozen cells are simply thawed and lysed by addition of a buffer containing the CyQUANT®.
For the assay, tumorigenic breast cancer cells BT-474 cells were seeded at 2500 cells per well in a 96-well plate and incubated over-night at 37° C. Then, fresh medium containing different concentration of the compounds or vehicle (DMSO) was added and cells were growth 48 h at 37° C. Finally, cells were frozen at […] and then processed according to the manufacture instructions. A minimum of triplicate data for each dose was used for the analysis.
Data were collected and analyzed with Prism 5 software to calculate the growth inhibition curve.
In particular, values obtained from the DMSO treated cells was set at 100% of growth. Data from treatment of cells with serial dilutions of the compounds were normalized versus the DMSO group and fitted using a four-parameter dose-response curve.
GI50 was calculated as the concentration of compound that gives a response half way between bottom and top plateaus of the fitted curve.
The bottom plateaus of the fitted curve was used to calculate the Growth Inhibition max (GImax), defined as the percentage of the reduction of cells after 48 h upon a saturating dose of compound.
as §1
For the cell growth inhibition (GI) the growth inhibition 50 (GI50) and the growth inhibition max (GImax) are reported. […] The bottom plateaus of the curve was used to calculate the Growth Inhibition max (GImax), defined as the percentage of the reduction of cells after 48 h upon a saturating dose of the administered compound. Compounds with a GI50<100 μM were also tested for their antagonistic activity toward REV-ERB. For these compounds, the EC50 value is provided, calculated as the concentration of compound that gives a response half between the bottom (expression of the reporter in absence of compound) and the top (expression of the reporter at saturating doses of compound) plateaus of the fitted curves (see biological method section for a description of the reported assay). n.d.=not determined; n.t.=not tested.

Series [3] addresses T1, LXRα (Homo sapiens, UniProt Q13133).
T1 sequence (Q13133 1-447): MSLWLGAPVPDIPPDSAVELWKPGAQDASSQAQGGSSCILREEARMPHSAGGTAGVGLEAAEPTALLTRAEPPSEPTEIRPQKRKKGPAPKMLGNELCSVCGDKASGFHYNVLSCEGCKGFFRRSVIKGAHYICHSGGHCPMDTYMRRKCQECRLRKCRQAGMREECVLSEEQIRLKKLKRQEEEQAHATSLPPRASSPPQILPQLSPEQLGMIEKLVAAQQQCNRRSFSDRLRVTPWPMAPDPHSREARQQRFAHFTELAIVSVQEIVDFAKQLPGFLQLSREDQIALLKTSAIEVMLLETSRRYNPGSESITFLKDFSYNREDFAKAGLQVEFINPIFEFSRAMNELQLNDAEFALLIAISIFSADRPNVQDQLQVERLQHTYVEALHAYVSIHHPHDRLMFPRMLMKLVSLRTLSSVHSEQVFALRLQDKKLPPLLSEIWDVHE
The conditions noted are these: Trump et al., J. Med. Chem., 2013; cited from earlier work.

Series [4] has as its target T2, REV-ERBα (Homo sapiens, UniProt P20393).
T2 sequence (P20393 284-614 limits assumed): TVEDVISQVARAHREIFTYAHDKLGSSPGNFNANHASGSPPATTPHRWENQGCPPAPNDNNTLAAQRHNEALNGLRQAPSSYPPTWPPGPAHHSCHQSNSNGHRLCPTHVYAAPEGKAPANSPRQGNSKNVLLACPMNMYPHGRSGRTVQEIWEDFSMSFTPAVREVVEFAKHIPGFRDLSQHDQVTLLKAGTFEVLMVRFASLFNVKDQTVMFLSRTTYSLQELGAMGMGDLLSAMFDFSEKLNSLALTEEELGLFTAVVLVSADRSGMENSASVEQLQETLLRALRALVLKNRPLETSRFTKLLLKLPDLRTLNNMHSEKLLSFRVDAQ
The conditions noted are these: literature; cited from earlier work.

The conditions of series [5]: cited from earlier work; for pharmacokinetic properties: literature; for metabolic clearance: in vivo, Solt et al., Nature, 2012.

Structures can show the parent of a compound that is named as a salt.

With `CN1CCN(Cc2cc(CNC3(c4cccs4)CCCC3)ccc2O)CC1` [Example 25, 2-[(4-Methylpiperazin-1-yl)methyl]-4-[[[1-(2-thienyl)cyclopentyl]amino]methyl]phenol trihydrochloride], the EC50 in series [1] came out at 29 µM. Further, in series [2], the 50% growth inhibitory concentration (GI50) is 18 µM and the Emax was 70%.

`COc1cccc(C2(NCc3ccc(O)c(CN4CCN(C)CC4)c3)CCCC2)c1` [Example 27, 4-[[[1-(3-Methoxyphenyl)cyclopentyl]amino]methyl]-2-[(4-methylpiperazin-1-yl)methyl]phenol trihydrochloride]: the EC50 in series [1] was 16 µM. Further, in series [2], the GI50 worked out at 12 µM and the Emax was 70%.

Take `CN1CCC(Cc2cccc(CNC3(c4ccccc4F)CCOCC3)c2)CC1` [Example 30, 4-(2-Fluorophenyl)-N-[[3-[(1-methyl-4-piperidyl)methyl]phenyl]methyl]tetrahydropyran-4-amine dihydrochloride]: in series [1], the EC50 is 6 µM. For the same compound, in series [2], the GI50 was found to be 3 µM and the Emax is 95%.

In the case of `CN1CCC(Cc2cccc(CNC3(c4ccc(F)cc4)CCCC3)c2)CC1` [Example 32, 1-(4-Fluorophenyl)-N-[[3-[(1-methyl-4-piperidyl)methyl]phenyl]methyl]cyclopentanamine dihydrochloride], the EC50 in series [1] turned out to be 2 µM. In series [2], the GI50 was 1 µM and the Emax amounted to 97%.

As to `CN1CCN(Cc2cc(CNC3(c4ccccc4F)CCC3)ccc2O)CC1` [Example 33, 4-[[[1-(2-Fluorophenyl)cyclobutyl]amino]methyl]-2-[(4-methylpiperazin-1-yl)methyl]phenol trihydrochloride], in series [1], the EC50 was found to be 38 µM. For the same compound, in series [2], the GI50 stood at 30 µM and the Emax was determined as 70%.

Regarding `CC(C)(C)OC(=O)CN(Cc1ccc(Cl)cc1)Cc1ccc([N+](=O)[O-])s1` [GSK4112], the “activity on LXRα” value in series [3] was “agonizes”. Moreover, the “effect on interaction of NCoR peptide with REV-ERBα (FRET)” value in series [4] is “dose-dependently increase the interaction”. For the same compound, the pharmacokinetic properties result in series [5] is reported as “poor pharmacokinetic properties”.

`CCOC(=O)C1Cc2ccccc2CN1C(=O)c1ccc(SC)s1` (stereo not drawn) [SR8278]: in series [4], the “effect on interaction of NCoR peptide with REV-ERBα (FRET)” value was “inhibit REV-ERBα LBD/NcoR interaction”. In addition, the pharmacokinetic properties result in series [5] was “poor pharmacokinetic properties”.

In the case of `CCOC(=O)N1CCC(CN(Cc2ccc(Cl)cc2)Cc2ccc([N+](=O)[O-])s2)C1` (stereo not drawn) [SR9009], the “times more active toward LXRα than REV-ERBs” value in series [3] was 100 times. In series [5], the metabolic clearance entry is reported as “high metabolic clearance rates”.

For the compound `CCCCCNC(=O)N1CCC(CN(Cc2ccc(Cl)cc2)Cc2ccc([N+](=O)[O-])s2)C1` (stereo not drawn) [SR9011], the “times more active toward LXRα than REV-ERBs” value in series [3] was 100 times. The metabolic clearance entry in series [5] was “high metabolic clearance rates”.

For orientation: EC50 means the midpoint of the concentration-response curve. One may read the GI50 as the concentration that inhibits growth by half.
